Measurements published in US20260242388A1, “NBD1 MODULATORS AND METHODS OF USING THE SAME” (Sionna Therapeutics Inc., priority 2023, published 2026).

Tests used:
[1] = biological target: T1, CFTR (Homo sapiens, UniProt P13569, DEL508-508); test: TECC24 recording of CFTR-mediated transepithelial chloride transport in ΔF508 homozygous CF-HBE cells; format: cell-based; conditions: 48 hours incubation, AUC of forskolin-stimulated IEQ, test agent AUC divided by vehicle (DMSO) AUC, primary CF-HBE cells
T1 construct: Primary human bronchial epithelial cells from a ΔF508 homozygous CF donor; host or cells: primary CF-HBE cells, ΔF508 homozygous donor
Method: Example 24. TECC24 AUC Fold Over DMSO @10 μM
The effects of a test agent on CFTR-mediated transepithelial chloride transport was measured using TECC24 recording analysis. Test agents were solubilized in DMSO. Solubilized test agents were mixed with incubation medium containing DMEM/F12, Ultroser G (2%; Crescent Chemical, catalog #67042), Hyclone Fetal Clone 11 (2%; GE Healthcare, catalog #SH30066.02), bovine brain extract (0.25%; Lonza, catalog #CC-4098), insulin (2.5 μg/mL), IL-13 (10 ng/mL), hydrocortisone (20 nM), transferrin ([…]), triiodothyronine (500 nM), ethanolamine (250 nM), epinephrine (1.5 μM), phosphoethanolamine (250 nM), and retinoic acid (10 nM). Primary human bronchial epithelial cells from a ΔF508 homozygous CF donor (CF-HBE cells; from University of North Carolina Cystic Fibrosis Tissue Procurement Center), grown on Transwell HTS 24-well cell culture inserts (Costar, catalog #3378), were exposed to test agents or controls dissolved in incubation medium. The CF-HBE cells were cultured at 36.5° C. for 48 hours before TECC24 recordings were performed in the presence or absence of test agent, a positive control or vehicle (DMSO).
Following incubation, the transwell cell culture inserts containing the test agent or control-treated CF-HBE cells were loaded onto a TECC24 apparatus (TECC v7 or MTECC v2; EP Design) to record the transepithelial voltage (VT) and resistance (TEER) using 4 AgCl electrodes per well configured in current-clamp mode. The apical and basolateral bath solutions both contained (in mM) 140 NaCl, 5 KCl, 2 CaCl2), 1 MgCl2, 10 Hepes, and 10 glucose (adjusted to pH 7.4 with NaOH). To inhibit basal Na+ absorption, the ENaC inhibitor benzamil (10 μM) was added to the bath. Then, the adenylate cyclase activator, forskolin (10 μM), was added to the bath to activate CFTR. The forskolin-stimulated Cl− transport was halted by addition of CFTR inhibitor-172 (20 μM) to the bath at the end of the experiment to confirm specificity. VT and TEER recordings were digitally acquired at routine intervals using TECC or MTECC software (EP Design). VT and TEER were transformed into equivalent transepithelial Cl− current (IEQ), and the Area Under the Curve (AUC) of the IEQ time course between forskolin and CFTR inhibitor-172 addition is generated using Excel (Microsoft). Efficacy is expressed as the ratio of the test agent AUC divided by vehicle AUC. EC50s based on AUC are generated using the non-linear regression log(agonist) vs. response function in Prism software (Graphpad) with HillSlope fixed=1.
If a test agent increased the AUC of the forskolin-stimulated IEQ relative to vehicle in CF-HBE cells, and this increase was inhibited by CFTR inhibitor-172, then the test agent was considered a CFTR corrector.

[2] = tested on: NBD1; test: Aggregation analysis using differential static light scattering (DSLS), thermal stability of NBD1; format: binding, Human; conditions: 100 μM compound; ΔTagg = Tagg minus average Tagg of DMSO control wells; NBD1 0.2 mg/ml
Method: Example 23. Aggregation Analysis Using Differential Static Light Scattering (DSLS)
Purified recombinant NBD1 was produced using previously described methods (A. Schmidt, J. L. Mendoza, P. J. Thomas (2011) Biochemical and Biophysical Approaches to Probe CFTR Structure (365-376) M. D. Amaral, K. Kunzelmann (eds.), Cystic Fibrosis, Methods in Molecular Biology 741, Springer Science+Business Media). The effect of test compounds on thermal stability of NBD1 was evaluated by differential static light scattering (DSLS) using the Harbinger Stargazer-384 instrument (Epiphyte Three, Toronto, Canada). Test compounds were dissolved and diluted to desired concentrations in 100% DMSO. The compounds or DMSO controls (100 nL) were stamped into wells of a […] low volume optical plate (Corning Inc., Corning, NY) using the Echo 555 acoustic liquid handler (Labcyte Inc., San Jose, CA).
NBD1 protein was diluted to 0.2 mg/ml in S200 buffer (50 mM Tris-HCl, 150 mM NaCl, 5 mM MgCl2, 2 mM ATP, 2 mM DTT, pH7.6) containing 1% glycerol. 10 μL of protein solution was aliquoted into the 384-well plate harboring the test compounds and 10 μL mineral oil was overlayed onto the protein solution, using the epMotion robotic liquid handler (Eppendorf North America, Hauppauge, NY). After placing into the Stargazer instrument, the plate was heated at 1° C. per minute to 70° C. Images were captured from 25° C. to 70° C. every 0.5° C. At the end of the experiment run, instrument software integrated image files and analyzed data automatically. A linear regression curve was generated for each well, representing the increase in light scattering over time. A temperature of aggregation (Tagg) was calculated based on the inflection point of the curve. To better compare data across experiments the average Tagg for DMSO control wells was calculated and subtracted from values for wells containing compounds to obtain a “ΔTagg” value. These ΔTagg values reflect stabilizing efficacy of the compounds.

T1 sequence (P13569 with tags, fused parts or gaps DEL508-508): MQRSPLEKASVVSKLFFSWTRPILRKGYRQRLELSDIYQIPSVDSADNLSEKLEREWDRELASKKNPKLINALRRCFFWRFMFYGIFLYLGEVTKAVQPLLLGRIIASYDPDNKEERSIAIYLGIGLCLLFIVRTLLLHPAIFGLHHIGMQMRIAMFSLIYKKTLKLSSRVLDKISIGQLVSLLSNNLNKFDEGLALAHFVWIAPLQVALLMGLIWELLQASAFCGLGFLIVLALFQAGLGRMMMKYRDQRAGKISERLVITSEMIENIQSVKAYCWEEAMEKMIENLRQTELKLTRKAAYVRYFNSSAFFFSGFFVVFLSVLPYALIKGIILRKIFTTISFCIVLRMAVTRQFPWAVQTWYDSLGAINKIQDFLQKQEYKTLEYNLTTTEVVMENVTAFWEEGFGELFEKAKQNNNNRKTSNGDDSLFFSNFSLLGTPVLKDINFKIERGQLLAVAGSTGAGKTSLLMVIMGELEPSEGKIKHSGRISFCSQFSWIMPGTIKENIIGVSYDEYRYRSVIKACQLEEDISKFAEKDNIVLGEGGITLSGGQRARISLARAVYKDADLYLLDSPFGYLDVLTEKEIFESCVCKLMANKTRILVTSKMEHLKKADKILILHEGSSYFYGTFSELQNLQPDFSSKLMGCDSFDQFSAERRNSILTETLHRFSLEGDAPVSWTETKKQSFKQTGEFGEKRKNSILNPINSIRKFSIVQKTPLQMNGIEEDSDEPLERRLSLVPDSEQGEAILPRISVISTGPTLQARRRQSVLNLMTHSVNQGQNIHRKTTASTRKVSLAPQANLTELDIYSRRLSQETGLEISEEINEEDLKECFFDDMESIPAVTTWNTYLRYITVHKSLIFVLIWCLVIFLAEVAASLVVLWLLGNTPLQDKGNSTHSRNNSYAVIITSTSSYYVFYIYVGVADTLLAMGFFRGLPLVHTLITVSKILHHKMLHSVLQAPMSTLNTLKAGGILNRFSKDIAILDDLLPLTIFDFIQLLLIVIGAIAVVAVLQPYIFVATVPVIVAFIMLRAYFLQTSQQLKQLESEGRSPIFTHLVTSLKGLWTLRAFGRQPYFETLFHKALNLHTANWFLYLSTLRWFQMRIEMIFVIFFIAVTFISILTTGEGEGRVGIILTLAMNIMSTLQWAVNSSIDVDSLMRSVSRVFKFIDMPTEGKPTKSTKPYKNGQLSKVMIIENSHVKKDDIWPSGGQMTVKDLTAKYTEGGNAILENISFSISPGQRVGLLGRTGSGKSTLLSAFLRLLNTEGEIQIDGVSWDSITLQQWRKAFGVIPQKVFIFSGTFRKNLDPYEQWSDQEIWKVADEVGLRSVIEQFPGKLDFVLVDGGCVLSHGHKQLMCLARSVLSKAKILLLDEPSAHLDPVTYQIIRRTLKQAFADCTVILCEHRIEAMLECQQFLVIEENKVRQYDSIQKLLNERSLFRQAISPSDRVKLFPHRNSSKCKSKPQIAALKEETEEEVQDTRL

Row | SMILES | TECC24 @ 10 uM over DMSO [1] | DSLS NBD1/3D Human Stability delta-T (° C.) @ 100 (μM) [2]
1 | O=C(O)Cc1cccc(C2OCCc3cn(-c4cc(Oc5c(F)cc6[nH]ccc6c5F)ccc4F)nc32)c1F (stereo not drawn) [Example 1, 2-(3-(2-(5-((4,6-difluoro-1H-indol-5-yl)oxy)-2-fluorophenyl)-2,4,5,7-tetrahydropyrano[3,4-c]pyrazol-7-yl)-2-fluorophenyl)acetic acid] | C (AUC @10 uM <= 4) | B (4-8° C.)
2 | Cc1c(-c2cc(Oc3c(F)cc4[nH]ccc4c3S(C)(=O)=O)ccc2F)nc2n1CCNC2c1cccc(CC(C)C(=O)O)c1F (stereo not drawn) [Example 8, 3-[2-fluoro-3-[2-[2-fluoro-5-[(6-fluoro-4-methylsulfonyl-1H-indol-5-yl)oxy]phenyl]-3-methyl-5,6,7,8-tetrahydroimidazo[1,2-a]pyrazin-8-yl]phenyl]-2-methyl-propanoic acid] | C (AUC @10 uM <= 4) | A (T ≥ 8° C.)
3 | CS(=O)(=O)c1c(Oc2ccc(F)c(-c3nc4c([nH]3)C(c3cccc(CCC(=O)O)c3F)NCCC4)c2)c(F)cc2[nH]ccc12 (stereo not drawn) [Example 22, 3-[2-fluoro-3-[2-[2-fluoro-5-[(6-fluoro-4-methylsulfonyl-1H-indol-5-yl)oxy]phenyl]-3,4,5,6,7,8-hexahydroimidazo[4,5-c]azepin-4-yl]phenyl]propanoic acid] | C (AUC @10 uM <= 4) | A (T ≥ 8° C.)

The next lines start with results.

Row | TECC24 @ 10 uM over DMSO [1] | SMILES | DSLS NBD1/3D Human Stability delta-T (° C.) @ 100 (μM) [2]
4 | A (AUC @10 uM >=12) | O=C(O)CCc1cccc([C@H]2NCCc3nc(-c4cc(Oc5c(F)cc6[nH]ccc6c5F)ccc4F)[nH]c32)c1F (single isomer, unassigned) [Example 3] | A (T ≥ 8° C.)
5 | C (AUC @10 uM <= 4) | CC(Cc1cccc(C2c3nc(-c4cc(Oc5c(F)cc6[nH]ccc6c5F)ccc4F)[nH]c3CCN2C)c1F)C(=O)O (stereo not drawn) [Example 11, 3-[3-[2-[5-[(4,6-difluoro-1H-indol-5-yl)oxy]-2-fluoro-phenyl]-5-methyl-1,4,6,7-tetrahydroimidazo[4,5-c]pyridin-4-yl]-2-fluoro-phenyl]-2-methyl-propanoic acid] | A (T ≥ 8° C.)
6 | B (AUC @10 uM between 4-12) | O=C(O)CCc1cccc(C2c3nc(-c4cc(Oc5c(F)cc6[nH]ccc6c5F)ccc4F)[nH]c3CCN2CC(F)F)c1F (stereo not drawn) [Example 12, 3-[3-[5-(2,2-difluoroethyl)-2-[5-[(4,6-difluoro-1H-indol-5-yl)oxy]-2-fluoro-phenyl]-1,4,6,7-tetrahydroimidazo[4,5-c]pyridin-4-yl]-2-fluoro-phenyl]propanoic acid] | A (T ≥ 8° C.)
